Molecular target: human F508del-CFTR (Homo sapiens, UniProt P13569, DEL508-508)
Assay: F508del-CFTR cell surface expression (corrector activity), DiscoveRx ß-galactosidase complementation chemiluminescence assay in recombinant U2OS cell line;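 also: U2OS cells co-expressing ProLink-tagged F508del-CFTR and a membrane-anchored enzyme acceptor, where more surface CFTR restores β-galactosidase activity measured by chemiluminescence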
Details: for EC50: EC50, F508del-CFTR cell surface expression, U2OS cells, 16h compound incubation, geomean values; for Emax: U2OS, in relation to Emax of corrector lumacaftor (=100%), arithmetic mean values

Chain of human F508del-CFTR (P13569 with tags, fused parts or gaps DEL508-508): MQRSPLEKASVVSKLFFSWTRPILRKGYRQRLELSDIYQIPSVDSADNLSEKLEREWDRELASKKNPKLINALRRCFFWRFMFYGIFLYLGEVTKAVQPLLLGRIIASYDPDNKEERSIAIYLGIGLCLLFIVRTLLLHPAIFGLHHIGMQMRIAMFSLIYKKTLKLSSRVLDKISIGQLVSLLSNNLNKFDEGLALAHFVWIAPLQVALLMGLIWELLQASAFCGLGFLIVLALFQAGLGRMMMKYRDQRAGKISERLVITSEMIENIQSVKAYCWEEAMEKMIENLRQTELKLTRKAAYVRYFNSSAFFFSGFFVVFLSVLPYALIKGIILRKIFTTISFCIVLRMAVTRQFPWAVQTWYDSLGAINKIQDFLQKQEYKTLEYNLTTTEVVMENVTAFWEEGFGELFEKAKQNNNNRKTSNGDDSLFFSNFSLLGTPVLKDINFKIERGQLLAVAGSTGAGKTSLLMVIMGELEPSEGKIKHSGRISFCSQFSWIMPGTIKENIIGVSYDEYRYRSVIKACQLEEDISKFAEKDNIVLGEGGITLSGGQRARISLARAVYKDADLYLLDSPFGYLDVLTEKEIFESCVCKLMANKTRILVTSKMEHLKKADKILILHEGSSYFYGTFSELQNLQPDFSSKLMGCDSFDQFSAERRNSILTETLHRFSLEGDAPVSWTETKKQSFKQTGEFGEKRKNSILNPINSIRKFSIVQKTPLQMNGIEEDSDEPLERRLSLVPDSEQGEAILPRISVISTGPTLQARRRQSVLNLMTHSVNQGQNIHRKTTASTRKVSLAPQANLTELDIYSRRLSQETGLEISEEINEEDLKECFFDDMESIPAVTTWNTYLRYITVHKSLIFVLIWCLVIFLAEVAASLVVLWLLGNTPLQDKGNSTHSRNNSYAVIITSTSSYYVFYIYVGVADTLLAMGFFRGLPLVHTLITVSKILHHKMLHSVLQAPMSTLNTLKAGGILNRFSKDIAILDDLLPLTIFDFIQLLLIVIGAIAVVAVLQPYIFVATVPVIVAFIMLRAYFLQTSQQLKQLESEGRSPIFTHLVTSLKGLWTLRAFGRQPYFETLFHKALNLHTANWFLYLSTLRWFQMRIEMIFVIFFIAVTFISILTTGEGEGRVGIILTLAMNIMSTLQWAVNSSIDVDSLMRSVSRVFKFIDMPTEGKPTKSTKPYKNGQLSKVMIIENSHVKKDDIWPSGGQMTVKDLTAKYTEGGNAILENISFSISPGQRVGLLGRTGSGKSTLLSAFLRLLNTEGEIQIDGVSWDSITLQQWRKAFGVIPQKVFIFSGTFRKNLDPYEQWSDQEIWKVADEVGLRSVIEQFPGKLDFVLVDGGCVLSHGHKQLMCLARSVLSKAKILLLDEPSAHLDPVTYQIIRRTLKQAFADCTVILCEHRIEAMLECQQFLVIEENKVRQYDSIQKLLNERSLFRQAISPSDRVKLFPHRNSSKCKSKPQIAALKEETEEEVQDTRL

EC50	Emax	Structure (SMILES)
908 nM	149%	COc1cc2c(cn1)OC[C@@H](Cc1ccccc1)NC(=O)C1(CC1)N(C)C(=O)[C@H](CC(C)C)N(C)C(=O)C[C@@H](C(=O)NCCc1noc(C3CC3)n1)NC2=O [Example 649, (3′R,9′S,13′S)-3′-benzyl-N-(2-(5-cyclopropyl-1,2,4-oxadiazol-3-yl)ethyl)-9′-isobutyl-17′-methoxy-7′,10′-dimethyl-5′,8′,11′,15′-tetraoxo-2′,3′,4′,5′,8′,9′,10′,11′,12′,13′,14′,15′-dodecahydro-7′H-spiro[cyclopropane-1,6′-pyrido[4,3-p][1]oxa[4,7,10,14]tetraazacycloheptadecine]-13′-carboxamide]
375 nM	127%	CC(C)C[C@H]1C(=O)N2CCCC[C@@H]2C(=O)N[C@H](Cc2ccccc2)COc2cccc(F)c2C(=O)N[C@H](C(=O)NCCc2ccc(-n3nccn3)cc2)CC(=O)N1C [Example 651, (7S,11S,20R,22aR)-N-(4-(2H-1,2,3-triazol-2-yl)phenethyl)-20-benzyl-14-fluoro-7-isobutyl-8-methyl-6,9,13,22-tetraoxo-1,3,4,6,7,8,9,10,11,12,13,19,20,21,22,22a-hexadecahydro-2H-benzo[p]pyrido[2,1-f][1]oxa[4,7,10,14]tetraazacycloheptadecine-11-carboxamide]
332 nM	140%	[2H]C1([2H])Oc2ccc3c(c2O1)C(=O)N[C@H](C(=O)NCCc1ccc(-n2nccn2)cc1)CC(=O)N(C)[C@@H](CC(C)C)C(=O)N1CCCC[C@@H]1C(=O)N[C@H](Cc1ccccc1)CO3 [Example 653, (8S,12S,18aR,21R)-N-(4-(2H-1,2,3-triazol-2-yl)phenethyl)-21-benzyl-12-isobutyl-11-methyl-6,10,13,19-tetraoxo-6,7,8,9,10,11,12,13,16,17,18,18a,19,20,21,22-hexadecahydro-15H-[1,3]dioxolo[4′,5′:5,6]benzo[1,2-p]pyrido[2,1-f][1]oxa[4,7,10,14]tetraazacycloheptadecine-4,4-d2-8-carboxamide]
290 nM	330%	Cc1cc(CCNC(=O)[C@@H]2CC(=O)N(C)[C@@H](CC(C)C)C(=O)N(C)C3(CC3)C(=O)N[C@H](Cc3ccccc3)COc3ccc4ccccc4c3C(=O)N2)on1 [Example 654, (3′S,7′S,13′R)-13′-benzyl-7′-isobutyl-6′,9′-dimethyl-N-(2-(3-methylisoxazol-5-yl)ethyl)-1′,5′,8′,11′-tetraoxo-2′,3′,4′,5′,6′,7′,8′,9′,11′,12′,13′,14′-dodecahydro-1′H-spiro[cyclopropane-1,10′-naphtho[1,2-p][1]oxa[4,7,10,14]tetraazacycloheptadecine]-3′-carboxamide]
150 nM	318%	CC(C)C[C@H]1C(=O)N2CCCC[C@@H]2C(=O)N[C@H](Cc2ccccc2)COc2ccc3ncc(F)cc3c2C(=O)N[C@H](C(=O)NCCc2cc(C3CC3)no2)CC(=O)N1C [Example 655, (9S,13S,19aR,22R)-22-benzyl-N-(2-(3-cyclopropylisoxazol-5-yl)ethyl)-5-fluoro-13-isobutyl-12-methyl-7,11,14,20-tetraoxo-7,8,9,10,11,12,13,14,17,18,19,19a,20,21,22,23-hexadecahydro-16H-pyrido[2′,1′:6,7][1]oxa[4,7,10,14]tetraazacycloheptadecino[16,17-f]quinoline-9-carboxamide]
357 nM	327%	COc1nc(C)cc2c1C(=O)N[C@H](C(=O)NCCc1nc(C3CC3)no1)CC(=O)N(C)[C@@H](CC(C)C)C(=O)N1CCCC[C@@H]1C(=O)N[C@H](Cc1ccccc1)CO2 [Example 656, (7S,11S,17aR,20R)-20-benzyl-N-(2-(3-cyclopropyl-1,2,4-oxadiazol-5-yl)ethyl)-11-isobutyl-4-methoxy-2,10-dimethyl-5,9,12,18-tetraoxo-5,6,7,8,9,10,11,12,15,16,17,17a,18,19,20,21-hexadecahydro-14H-dipyrido[2,1-f:3′,4′-p][1]oxa[4,7,10,14]tetraazacycloheptadecine-7-carboxamide]
347 nM	291%	[2H]C([2H])([2H])Oc1nc(C)cc2c1C(=O)N[C@H](C(=O)NCCc1nc(C3CC3)no1)CC(=O)N(C)[C@@H](CC(C)C)C(=O)N1CCCC[C@@H]1C(=O)N[C@H](Cc1ccccc1)CO2 [Example 657, (7S,11S,17aR,20R)-20-benzyl-N-(2-(3-cyclopropyl-1,2,4-oxadiazol-5-yl)ethyl)-11-isobutyl-4-(methoxy-d3)-2,10-dimethyl-5,9,12,18-tetraoxo-5,6,7,8,9,10,11,12,15,16,17,17a,18,19,20,21-hexadecahydro-14H-dipyrido[2,1-f:3′,4′-p][1]oxa[4,7,10,14]tetraazacycloheptadecine-7-carboxamide]
283 nM	300%	COc1nc(C)cc2c1C(=O)N[C@H](C(=O)NCCc1cc(C3CC3)no1)CC(=O)N(C)[C@@H](CC(C)C)C(=O)N1CCCC[C@@H]1C(=O)N[C@H](Cc1ccccc1)CO2 [Example 658, (7S,11S,17aR,20R)-20-benzyl-N-(2-(3-cyclopropylisoxazol-5-yl)ethyl)-11-isobutyl-4-methoxy-2,10-dimethyl-5,9,12,18-tetraoxo-5,6,7,8,9,10,11,12,15,16,17,17a,18,19,20,21-hexadecahydro-14H-dipyrido[2,1-f:3′,4′-p][1]oxa[4,7,10,14]tetraazacycloheptadecine-7-carboxamide]
359 nM	325%	[2H]C([2H])([2H])Oc1nc(C)cc2c1C(=O)N[C@H](C(=O)NCCc1cc(C3CC3)no1)CC(=O)N(C)[C@@H](CC(C)C)C(=O)N1CCCC[C@@H]1C(=O)N[C@H](Cc1ccccc1)CO2 [Example 659, (7S,11S,17aR,20R)-20-benzyl-N-(2-(3-cyclopropylisoxazol-5-yl)ethyl)-11-isobutyl-4-(methoxy-d3)-2,10-dimethyl-5,9,12,18-tetraoxo-5,6,7,8,9,10,11,12,15,16,17,17a,18,19,20,21-hexadecahydro-14H-dipyrido[2,1-f:3′,4′-p][1]oxa[4,7,10,14]tetraazacycloheptadecine-7-carboxamide]
91 nM	358%	CC(C)C[C@H]1C(=O)N2CCCC[C@@H]2C(=O)N[C@H](Cc2ccccc2)COc2cnc3cccc(F)c3c2C(=O)N[C@H](C(=O)NCCc2cc(C3CC3)no2)CC(=O)N1C [Example 660, (9S,13S,19aR,22R)-22-benzyl-N-(2-(3-cyclopropylisoxazol-5-yl)ethyl)-6-fluoro-13-isobutyl-12-methyl-7,11,14,20-tetraoxo-7,8,9,10,11,12,13,14,17,18,19,19a,20,21,22,23-hexadecahydro-16H-pyrido[2′,1′:6,7][1]oxa[4,7,10,14]tetraazacycloheptadecino[17,16-c]quinoline-9-carboxamide]
801 nM	210%	COc1nccc2c1C(=O)N[C@H](C(=O)NCCc1cc(C3CC3)no1)CC(=O)N(C)[C@@H](CC(C)C)C(=O)N1CCC(F)(F)C[C@@H]1C(=O)N[C@H](Cc1ccccc1)CO2 [Example 663, (7S,11S,17aR,20R)-20-benzyl-N-(2-(3-cyclopropylisoxazol-5-yl)ethyl)-16,16-difluoro-11-isobutyl-4-methoxy-10-methyl-5,9,12,18-tetraoxo-5,6,7,8,9,10,11,12,15,16,17,17a,18,19,20,21-hexadecahydro-14H-dipyrido[2,1-f:3′,4′-p][1]oxa[4,7,10,14]tetraazacycloheptadecine-7-carboxamide]
231 nM	291%	[2H]C([2H])([2H])Oc1nc(C)cc2c1C(=O)N[C@H](C(=O)NCCc1cc(C3CC3)on1)CC(=O)N(C)[C@@H](CC(C)C)C(=O)N1CCCC[C@@H]1C(=O)N[C@H](Cc1ccccc1)CO2 [Example 664, (7S,11S,17aR,20R)-20-benzyl-N-(2-(5-cyclopropylisoxazol-3-yl)ethyl)-11-isobutyl-4-(methoxy-d3)-2,10-dimethyl-5,9,12,18-tetraoxo-5,6,7,8,9,10,11,12,15,16,17,17a,18,19,20,21-hexadecahydro-14H-dipyrido[2,1-f:3′,4′-p][1]oxa[4,7,10,14]tetraazacycloheptadecine-7-carboxamide]
119 nM	323%	CC(C)C[C@H]1C(=O)N2CCCC[C@@H]2C(=O)N[C@H](Cc2ccccc2)COc2cnc3ccc(F)cc3c2C(=O)N[C@H](C(=O)NCCc2cnn(C3CC3)n2)CC(=O)N1C [Example 665, (9S,13S,19aR,22R)-22-benzyl-N-(2-(2-cyclopropyl-2H-1,2,3-triazol-4-yl)ethyl)-5-fluoro-13-isobutyl-12-methyl-7,11,14,20-tetraoxo-7,8,9,10,11,12,13,14,17,18,19,19a,20,21,22,23-hexadecahydro-16H-pyrido[2′,1′:6,7][1]oxa[4,7,10,14]tetraazacycloheptadecino[17,16-c]quinoline-9-carboxamide]

Structure (SMILES)	EC50	Emax
COc1cccc(CCNC(=O)[C@@H]2CC(=O)N(C)[C@@H](CC(C)C)C(=O)N(C)C3(CC3)C(=O)N[C@H](Cc3ccccc3)COc3cnc(OC)cc3C(=O)N2)c1 [Example 650, (3′R,9′S,13′S)-3′-benzyl-9′-isobutyl-17′-methoxy-N-(3-methoxyphenethyl)-7′,10′-dimethyl-5′,8′,11′,15′-tetraoxo-2′,3′,4′,5′,8′,9′,10′,11′,12′,13′,14′,15′-dodecahydro-7′H-spiro[cyclopropane-1,6′-pyrido[4,3-p][1]oxa[4,7,10,14]tetraazacycloheptadecine]-13′-carboxamide]	596 nM	214%
[2H]C([2H])([2H])Oc1nc(C)cc2c1C(=O)N[C@H](C(=O)NCCc1noc(C3CC3)n1)CC(=O)N(C)[C@@H](CC(C)C)C(=O)N1CCCC[C@@H]1C(=O)N[C@H](Cc1ccccc1)CO2 [Example 666, (7S,11S,17aR,20R)-20-benzyl-N-(2-(5-cyclopropyl-1,2,4-oxadiazol-3-yl)ethyl)-11-isobutyl-4-(methoxy-d3)-2,10-dimethyl-5,9,12,18-tetraoxo-5,6,7,8,9,10,11,12,15,16,17,17a,18,19,20,21-hexadecahydro-14H-dipyrido[2,1-f:3′,4′-p][1]oxa[4,7,10,14]tetraazacycloheptadecine-7-carboxamide]	484 nM	311%
